One may read the Emax as the maximal effect, on the per cent scale that the assay sets. A word on the EC50: it is the concentration at which the effect is half-maximal.

The test concerns the target T1, human mAChR M4 (Homo sapiens, UniProt P08173).
T1 construct: expressed in transfected cells; host or cells: CHO-K1 (American Type Culture Collection), stably expressing hM4 and Gqi5
T1 sequence (P08173 1-479): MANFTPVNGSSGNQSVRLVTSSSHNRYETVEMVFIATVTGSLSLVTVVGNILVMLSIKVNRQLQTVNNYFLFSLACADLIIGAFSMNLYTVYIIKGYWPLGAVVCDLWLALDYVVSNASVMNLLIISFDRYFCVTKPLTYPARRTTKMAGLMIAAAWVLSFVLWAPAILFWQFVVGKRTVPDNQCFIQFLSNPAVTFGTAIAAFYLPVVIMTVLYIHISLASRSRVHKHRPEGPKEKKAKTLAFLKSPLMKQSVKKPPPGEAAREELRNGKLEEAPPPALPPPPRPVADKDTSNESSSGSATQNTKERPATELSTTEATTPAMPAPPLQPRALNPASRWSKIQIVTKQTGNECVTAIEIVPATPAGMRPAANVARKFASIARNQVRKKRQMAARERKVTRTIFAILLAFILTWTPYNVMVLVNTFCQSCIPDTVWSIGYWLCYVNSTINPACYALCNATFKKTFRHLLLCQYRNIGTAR
The test can be described thus: mAChR M4 cell-based functional assay: calcium mobilization (Fluo-4, FDSS), potentiation of EC20 acetylcholine response in hM4-Gqi5 CHO-K1 cells. As to conditions: human M4; for Emax at 30 µM: CHO-K1, % ACh maximum at 30 μM; for EC50: potentiation of EC20 acetylcholine response, calcium mobilization. The gist of the method:
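CHO-K1 cells stably co-expressing human M4 and chimeric Gqi5, loaded with Fluo-4 AM (50 min, 37 °C). Compounds in 11-point 1:3 series added first; EC20 acetylcholine added at 144 s and again at 230 s. Calcium read on FDSS at 1 Hz; EC50 and Emax from four-parameter logistic fit of potentiated EC20 response.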

For the molecule `Cc1c(N2CCc3ncc(N4C[C@@H](C)O[C@@H](C)C4)cc3C2)nn2c(=O)cc(C(F)F)nc2c1C` [Compound 2-41, 2-(difluoromethyl)-7-(3-((2R,6S)-2,6-dimethylmorpholino)-7,8-dihydro-1,6-naphthyridin-6(5H)-yl)-8,9-dimethyl-4H-pyrimido[1,2-b]pyridazin-4-one], the Emax at 30 µM was 96% and the EC50 was found to be 822 nM.

For `Cc1cc(=O)n2nc(N3CCc4ncc(N5CC6CC5CO6)cc4C3)c(C)cc2n1` (stereo not drawn) [Compound 2-42, 7-(3-(2-oxa-5-azabicyclo[2.2.1]heptan-5-yl)-7,8-dihydro-1,6-naphthyridin-6(5H)-yl)-2,8-dimethyl-4H-pyrimido[1,2-b]pyridazin-4-one], the Emax at 30 µM is 77% and the EC50 was 850 nM.

Consider `Cc1cc(=O)n2nc(N3CCc4ncc(N5CC6CCC(C5)O6)cc4C3)c(C)c(C)c2n1` [Compound 2-43, 7-(3-(8-oxa-3-azabicyclo[3.2.1]octan-3-yl)-7,8-dihydro-1,6-naphthyridin-6(5H)-yl)-2,8,9-trimethyl-4H-pyrimido[1,2-b]pyridazin-4-one], for which the Emax at 30 µM amounted to 76% and the EC50 was found to be 310 nM.

Regarding `Cc1cc(=O)n2nc(N3CCc4ncc(NCC5CCCOC5)cc4C3)c(C)c(C)c2n1` (stereo not drawn) [Compound 2-44, 2,8,9-trimethyl-7-(3-(((tetrahydro-2H-pyran-3-yl)methyl)amino)-7,8-dihydro-1,6-naphthyridin-6(5H)-yl)-4H-pyrimido[1,2-b]pyridazin-4-one], the maximal effect (Emax) at 30 µM amounted to 65% and the EC50 amounted to 611 nM.

Regarding `COC1CCN(c2cnc3c(c2)CN(c2nn4c(=O)cc(C)nc4c(C)c2C)CC3)CC1` [Compound 2-45, 7-(3-(4-methoxypiperidin-1-yl)-7,8-dihydro-1,6-naphthyridin-6(5H)-yl)-2,8,9-trimethyl-4H-pyrimido[1,2-b]pyridazin-4-one], the Emax at 30 µM came to 66% and the EC50 came out at 827 nM.

With `Cc1cc(=O)n2nc(N3CCc4ncc(N5CCSCC5)cc4C3)c(C)c(C)c2n1` [Compound 2-46, 2,8,9-trimethyl-7-(3-thiomorpholino-7,8-dihydro-1,6-naphthyridin-6(5H)-yl)-4H-pyrimido[1,2-b]pyridazin-4-one], the Emax at 30 µM came out at 99% and the EC50 came out at 308 nM.

Turning to `Cc1cc(=O)n2nc(N3CCc4ncc(N5CCC6(CC5)COC6)cc4C3)c(C)c(C)c2n1` [Compound 2-47, 7-(3-(2-oxa-7-azaspiro[3.5]nonan-7-yl)-7,8-dihydro-1,6-naphthyridin-6(5H)-yl)-2,8,9-trimethyl-4H-pyrimido[1,2-b]pyridazin-4-one], the Emax at 30 µM was determined as 66% and the EC50 is 2150 nM.

In the case of `Cc1c(N2CCc3ncc(N4CCC(F)(F)CC4)cc3C2)nn2c(=O)cc(C(F)F)nc2c1C` [Compound 2-48, 2-(difluoromethyl)-7-(3-(4,4-difluoropiperidin-1-yl)-7,8-dihydro-1,6-naphthyridin-6(5H)-yl)-8,9-dimethyl-4H-pyrimido[1,2-b]pyridazin-4-one], the Emax at 30 µM is 79% and the EC50 was determined as 334 nM.

Take `Cc1cc(=O)n2nc(N3CCc4ncc(N5CCOC(c6cccnc6)C5)cc4C3)c(C)c(C)c2n1` (stereo not drawn) [Compound 2-49, 2,8,9-trimethyl-7-(3-(2-(pyridin-3-yl)morpholino)-7,8-dihydro-1,6-naphthyridin-6(5H)-yl)-4H-pyrimido[1,2-b]pyridazin-4-one]: the Emax at 30 µM was 75% and the EC50 was 1200 nM.

On to `Cc1cc(=O)n2nc(N3CCc4ncc(NCc5csc(C)n5)cc4C3)c(C)c(C)c2n1` [Compound 2-50, 2,8,9-trimethyl-7-(3-(((2-methylthiazol-4-yl)methyl)amino)-7,8-dihydro-1,6-naphthyridin-6(5H)-yl)-4H-pyrimido[1,2-b]pyridazin-4-one], for which the Emax at 30 µM was 53% and the EC50 amounted to 837 nM.

For `Cc1cc2nccc(=O)n2nc1N1CCc2ncc(N3CC(C)(C)Oc4ccccc43)cc2C1` [Compound 2-51, 7-(3-(2,2-dimethyl-2,3-dihydro-4H-benzo[b][1,4]oxazin-4-yl)-7,8-dihydro-1,6-naphthyridin-6(5H)-yl)-8-methyl-4H-pyrimido[1,2-b]pyridazin-4-one], the Emax at 30 µM turned out to be 80% and the EC50 is 125 nM.

Take `Cc1cc2nccc(=O)n2nc1N1CCc2ncc(N3c4ccc(F)cc4OCC3C)cc2C1` (stereo not drawn) [Compound 2-52, 7-(3-(7-fluoro-3-methyl-2,3-dihydro-4H-benzo[b][1,4]oxazin-4-yl)-7,8-dihydro-1,6-naphthyridin-6(5H)-yl)-8-methyl-4H-pyrimido[1,2-b]pyridazin-4-one]: the Emax at 30 µM worked out at 89% and the EC50 came to 16 nM.

With `Cc1ccc2c(c1)N(c1cnc3c(c1)CN(c1nn4c(=O)ccnc4cc1C)CC3)CCO2` [Compound 2-53, 8-methyl-7-(3-(6-methyl-2,3-dihydro-4H-benzo[b][1,4]oxazin-4-yl)-7,8-dihydro-1,6-naphthyridin-6(5H)-yl)-4H-pyrimido[1,2-b]pyridazin-4-one], the Emax at 30 µM came to 87% and the EC50 was 28 nM.

With `Cc1ccc2c(c1)N(c1cnc3c(c1)CN(c1nn4c(=O)ccnc4cc1C)CC3)C(C)CO2` (stereo not drawn) [Compound 2-54, 7-(3-(3,6-dimethyl-2,3-dihydro-4H-benzo[b][1,4]oxazin-4-yl)-7,8-dihydro-1,6-naphthyridin-6(5H)-yl)-8-methyl-4H-pyrimido[1,2-b]pyridazin-4-one], the Emax at 30 µM is 96% and the EC50 came to 64 nM.

For the molecule `Cc1cc2nccc(=O)n2nc1N1CCc2ncc(N3CC(C)Oc4cc(F)ccc43)cc2C1` (stereo not drawn) [Compound 2-55, 7-(3-(7-fluoro-2-methyl-2,3-dihydro-4H-benzo[b][1,4]oxazin-4-yl)-7,8-dihydro-1,6-naphthyridin-6(5H)-yl)-8-methyl-4H-pyrimido[1,2-b]pyridazin-4-one], the Emax at 30 µM is 89% and the EC50 is 108 nM.

Take `Cc1cc2nccc(=O)n2nc1N1CCc2ncc(N3CCOc4cc(F)ccc43)cc2C1` [Compound 2-56, 7-(3-(7-fluoro-2,3-dihydro-4H-benzo[b][1,4]oxazin-4-yl)-7,8-dihydro-1,6-naphthyridin-6(5H)-yl)-8-methyl-4H-pyrimido[1,2-b]pyridazin-4-one]: the Emax at 30 µM was determined as 98% and the EC50 was 14 nM.

For the molecule `Cc1cc2nccc(=O)n2nc1N1CCc2ncc(N3CC(C)Oc4ccccc43)cc2C1` (stereo not drawn) [Compound 2-57, 8-methyl-7-(3-(2-methyl-2,3-dihydro-4H-benzo[b][1,4]oxazin-4-yl)-7,8-dihydro-1,6-naphthyridin-6(5H)-yl)-4H-pyrimido[1,2-b]pyridazin-4-one], the Emax at 30 µM was found to be 93% and the EC50 was determined as 20 nM.

For the molecule `Cc1cc2nccc(=O)n2nc1N1CCc2ncc(N3CCc4ncccc43)cc2C1` [Compound 2-58, 7-(3-(2,3-dihydro-1H-pyrrolo[3,2-b]pyridin-1-yl)-7,8-dihydro-1,6-naphthyridin-6(5H)-yl)-8-methyl-4H-pyrimido[1,2-b]pyridazin-4-one], the Emax at 30 µM turned out to be 86% and the EC50 came out at 188 nM.

In the case of `Cc1cc2nccc(=O)n2nc1N1CCc2ncc(N3CCOC(c4ccccc4F)C3)cc2C1` (stereo not drawn) [Compound 2-59, 7-(3-(2-(2-fluorophenyl)morpholino)-7,8-dihydro-1,6-naphthyridin-6(5H)-yl)-8-methyl-4H-pyrimido[1,2-b]pyridazin-4-one], the maximal effect (Emax) at 30 µM is 74% and the concentration giving a half-maximal response (EC50) was determined as 268 nM.

For the molecule `Cc1cc2nccc(=O)n2nc1N1CCc2ncc(Nc3ccccc3)cc2C1` [Compound 2-60, 8-methyl-7-(3-(phenylamino)-7,8-dihydro-1,6-naphthyridin-6(5H)-yl)-4H-pyrimido[1,2-b]pyridazin-4-one], the Emax at 30 µM worked out at 91% and the half-maximal effective concentration (EC50) was 29 nM.

As for `Cc1cc2nccc(=O)n2nc1N1CCc2ncc(N3CCOC(c4cccc(F)c4)C3)cc2C1` (stereo not drawn) [Compound 2-61, 7-(3-(2-(3-fluorophenyl)morpholino)-7,8-dihydro-1,6-naphthyridin-6(5H)-yl)-8-methyl-4H-pyrimido[1,2-b]pyridazin-4-one], the Emax at 30 µM was found to be 84% and the EC50 was 518 nM.

On to `COc1ccccc1Nc1cnc2c(c1)CN(c1nn3c(=O)ccnc3cc1C)CC2` [Compound 2-62, 7-(3-((2-methoxyphenyl)amino)-7,8-dihydro-1,6-naphthyridin-6(5H)-yl)-8-methyl-4H-pyrimido[1,2-b]pyridazin-4-one], for which the Emax at 30 µM amounted to 87% and the EC50 came out at 221 nM.

On to `Cc1cc2nccc(=O)n2nc1N1CCc2ncc(Nc3ccc(F)cc3)cc2C1` [Compound 2-63, 7-(3-((4-fluorophenyl)amino)-7,8-dihydro-1,6-naphthyridin-6(5H)-yl)-8-methyl-4H-pyrimido[1,2-b]pyridazin-4-one], for which the Emax at 30 µM turned out to be 91% and the EC50 was found to be 79 nM.

Regarding `Cc1cc2nccc(=O)n2nc1N1CCc2ncc(N3CCOC(c4ccc(F)cc4)C3)cc2C1` (stereo not drawn) [Compound 2-64, 7-(3-(2-(4-fluorophenyl)morpholino)-7,8-dihydro-1,6-naphthyridin-6(5H)-yl)-8-methyl-4H-pyrimido[1,2-b]pyridazin-4-one], the Emax at 30 µM turned out to be 84% and the EC50 came to 398 nM.

For the origin of these results see patent publication US20250101041A1, “POSITIVE ALLOSTERIC MODULATORS OF THE MUSCARINIC ACETYLCHOLINE RECEPTOR M4” (Vanderbilt University, priority 2022, published 2025).
